{
  "source": "paper PMC5218480",
  "about": "(PLoS ONE, 2017)",
  "system": "MV-4-11 cells",
  "assay": "Gene expression microarray analysis (Affymetrix PrimeView) and GSEA",
  "format": "cell-based, human",
  "parameters": "RFU PODN (11730768_x_at) / Fold change /veh PODN (11730768_x_at) / RFU LINC00158 (11744669_a_at) / Fold change /veh LINC00158 (11744669_a_at) / RFU DUSP10 (11751237_a_at) / Fold change /veh DUSP10 (11751237_a_at) / RFU ID3 (11757404_x_at) / Fold change /veh ID3 (11757404_x_at) / RFU PLEKHG5 (11737974_s_at) / Fold change /veh PLEKHG5 (11737974_s_at) / RFU LRRC4B (11730491_at) / Fold change /veh LRRC4B (11730491_at) / RFU GIMAP4 (11747438_a_at) / Fold change /veh GIMAP4 (11747438_a_at) / RFU KRT8 (11758183_x_at) / Fold change /veh KRT8 (11758183_x_at) / RFU CNN1 (11734310_a_at) / Fold change /veh CNN1 (11734310_a_at) / RFU VPS37D (11726825_at) / Fold change /veh VPS37D (11726825_at) / RFU C10orf10 (11716522_x_at) / Fold change /veh C10orf10 (11716522_x_at) / RFU KIR2DL2 /// KIR2DL4 /// KIR2DL5A /// KIR2DL5B /// KIR2DS1 /// KIR2DS2 /// KIR2DS3 /// KIR2DS4 /// KIR3DL3 /// KIR3DL3 /// KIR3DS1 (11738374_at) / Fold change /veh KIR2DL2 /// KIR2DL4 /// KIR2DL5A /// KIR2DL5B /// KIR2DS1 /// KIR2DS2 /// KIR2DS3 /// KIR2DS4 /// KIR3DL3 /// KIR3DL3 /// KIR3DS1 (11738374_at) / RFU C1QL1 (11718748_at) / Fold change /veh C1QL1 (11718748_at) / RFU TMPRSS4 (11747572_a_at) / Fold change /veh TMPRSS4 (11747572_a_at) / RFU HAMP (11756126_x_at) / Fold change /veh HAMP (11756126_x_at) / RFU RNFT2 (11725882_a_at) / Fold change /veh RNFT2 (11725882_a_at) / RFU NR4A2 (11747474_a_at) / Fold change /veh NR4A2 (11747474_a_at) / RFU ABCC12 (11746883_a_at) / Fold change /veh ABCC12 (11746883_a_at) / RFU TMEM136 (11760407_x_at) / Fold change /veh TMEM136 (11760407_x_at) / RFU CLDN22 /// WWC2 (11732394_at) / Fold change /veh CLDN22 /// WWC2 (11732394_at) / RFU HLA-DPB1 (11760878_x_at) / Fold change /veh HLA-DPB1 (11760878_x_at) / RFU SPINT1 (11716480_a_at) / Fold change /veh SPINT1 (11716480_a_at) / RFU GAP43 (11754022_s_at) / Fold change /veh GAP43 (11754022_s_at) / RFU A4GNT (11735810_at) / Fold change /veh A4GNT (11735810_at) / RFU PRB3 (11715151_x_at) / Fold change /veh PRB3 (11715151_x_at) / RFU TUBB4B (11761932_at) / Fold change /veh TUBB4B (11761932_at) / RFU CAPN14 (11732068_a_at) / Fold change /veh CAPN14 (11732068_a_at) / RFU TMCC2 (11721928_a_at) / Fold change /veh TMCC2 (11721928_a_at) / RFU IRGQ (11745062_a_at) / Fold change /veh IRGQ (11745062_a_at) / RFU FAM174B (11720279_a_at) / Fold change /veh FAM174B (11720279_a_at) / RFU TMPRSS4 (11748680_a_at) / Fold change /veh TMPRSS4 (11748680_a_at) / RFU FAM212B (11763350_a_at) / Fold change /veh FAM212B (11763350_a_at) / RFU PLEKHG5 (11743358_a_at) / Fold change /veh PLEKHG5 (11743358_a_at) / RFU ZSCAN30 (11745921_a_at) / Fold change /veh ZSCAN30 (11745921_a_at) / RFU CMKLR1 (11741424_a_at) / Fold change /veh CMKLR1 (11741424_a_at) / RFU LOC101060620 /// MAPK8IP1 (11723275_at) / Fold change /veh LOC101060620 /// MAPK8IP1 (11723275_at) / RFU SPTSSB (11747773_x_at) / Fold change /veh SPTSSB (11747773_x_at) / RFU PRSS12 (11739890_at) / Fold change /veh PRSS12 (11739890_at) / RFU BIN1 (11741810_x_at) / Fold change /veh BIN1 (11741810_x_at) / RFU WNT11 (11732464_a_at) / Fold change /veh WNT11 (11732464_a_at) / RFU C10orf10 (11716521_a_at) / Fold change /veh C10orf10 (11716521_a_at) / RFU C5orf56 (11738089_at) / Fold change /veh C5orf56 (11738089_at) / RFU CYB561 (11721691_x_at) / Fold change /veh CYB561 (11721691_x_at) / RFU ANKRD19P (11752326_a_at) / Fold change /veh ANKRD19P (11752326_a_at) / RFU OR2T12 /// OR2T33 /// OR2T8 (11738714_s_at) / Fold change /veh OR2T12 /// OR2T33 /// OR2T8 (11738714_s_at) / RFU VCAN (11748164_a_at) / Fold change /veh VCAN (11748164_a_at) / RFU JSRP1 (11732532_at) / Fold change /veh JSRP1 (11732532_at) / RFU KRTAP10-11 (11738290_x_at) / Fold change /veh KRTAP10-11 (11738290_x_at) / RFU MYO3A (11730013_a_at) / Fold change /veh MYO3A (11730013_a_at) / RFU EBF3 (11725865_a_at) / Fold change /veh EBF3 (11725865_a_at) / RFU CAMK2N1 (11719241_x_at) / Fold change /veh CAMK2N1 (11719241_x_at) / RFU C5orf56 (11738088_a_at) / Fold change /veh C5orf56 (11738088_a_at) / RFU OLFML3 (11715873_a_at) / Fold change /veh OLFML3 (11715873_a_at) / RFU LOC100653217 /// NTM (11731650_a_at) / Fold change /veh LOC100653217 /// NTM (11731650_a_at) / RFU MAPK11 (11762145_a_at) / Fold change /veh MAPK11 (11762145_a_at) / RFU FIZ1 (11724087_x_at) / Fold change /veh FIZ1 (11724087_x_at) / RFU OASL (11726364_x_at) / Fold change /veh OASL (11726364_x_at) / RFU SOX15 (11748057_x_at) / Fold change /veh SOX15 (11748057_x_at) / RFU CD79A (11719716_a_at) / Fold change /veh CD79A (11719716_a_at) / RFU HIST1H1D (11736915_at) / Fold change /veh HIST1H1D (11736915_at) / RFU CASKIN2 (11723855_a_at) / Fold change /veh CASKIN2 (11723855_a_at) / RFU LOC730098 (11760151_x_at) / Fold change /veh LOC730098 (11760151_x_at) / RFU OR4N2 (11742367_at) / Fold change /veh OR4N2 (11742367_at) / RFU PRRT2 (11749266_a_at) / Fold change /veh PRRT2 (11749266_a_at) / RFU SNX32 (11753110_a_at) / Fold change /veh SNX32 (11753110_a_at) / RFU CDHR5 (11726645_a_at) / Fold change /veh CDHR5 (11726645_a_at) / RFU RCAN1 (11760418_a_at) / Fold change /veh RCAN1 (11760418_a_at) / RFU FAM167A (11723789_a_at) / Fold change /veh FAM167A (11723789_a_at) / RFU FAM26E (11764081_at) / Fold change /veh FAM26E (11764081_at) / RFU ISYNA1 (11749810_s_at) / Fold change /veh ISYNA1 (11749810_s_at) / RFU ACY1 (11761880_at) / Fold change /veh ACY1 (11761880_at) / RFU 11764098_at / Fold change /veh 11764098_at / RFU SAMD14 (11745864_x_at) / Fold change /veh SAMD14 (11745864_x_at) / RFU NPB (11741838_a_at) / Fold change /veh NPB (11741838_a_at) / RFU TMPRSS6 (11731388_a_at) / Fold change /veh TMPRSS6 (11731388_a_at) / RFU KRTAP10-2 (11738614_at) / Fold change /veh KRTAP10-2 (11738614_at) / RFU ARHGAP8 /// PRR5-ARHGAP8 (11727945_x_at) / Fold change /veh ARHGAP8 /// PRR5-ARHGAP8 (11727945_x_at) / RFU KRTAP5-7 /// NADSYN1 (11734609_at) / Fold change /veh KRTAP5-7 /// NADSYN1 (11734609_at) / RFU RASL12 (11751679_a_at) / Fold change /veh RASL12 (11751679_a_at) / RFU CDKN2B (11736163_a_at) / Fold change /veh CDKN2B (11736163_a_at) / RFU PRF1 (11729649_at) / Fold change /veh PRF1 (11729649_at) / RFU, ZNF638 /// ZNF638-IT1 / Fold change vs veh, ZNF638 /// ZNF638-IT1 / RFU, PANK3 / Fold change vs veh, PANK3 / RFU, SH3YL1 / Fold change vs veh, SH3YL1 / RFU, ZEB2 / Fold change vs veh, ZEB2 / RFU, NRIP1 / Fold change vs veh, NRIP1 / RFU, PTTG1IP / Fold change vs veh, PTTG1IP / RFU, CAPN2 / Fold change vs veh, CAPN2 / RFU, MED14 / Fold change vs veh, MED14 / RFU, SNORA58 / Fold change vs veh, SNORA58 / RFU, C1orf63 / Fold change vs veh, C1orf63 / RFU, LRRFIP1 / Fold change vs veh, LRRFIP1 / RFU, NDUFAF7 / Fold change vs veh, NDUFAF7 / RFU, SLC12A2 / Fold change vs veh, SLC12A2 / RFU, IBTK / Fold change vs veh, IBTK / RFU, ESF1 / Fold change vs veh, ESF1 / Fold change vs veh, TMEM50B / RFU, TAOK1 / Fold change vs veh, TAOK1 / RFU, ACBD3 / Fold change vs veh, ACBD3 / RFU, TMA16 / Fold change vs veh, TMA16 / RFU, RWDD3 / Fold change vs veh, RWDD3 / RFU, BCAT1 / Fold change vs veh, BCAT1 / RFU, EDEM3 / Fold change vs veh, EDEM3 / RFU, TMEM33 / Fold change vs veh, TMEM33 / RFU, WDR75 / Fold change vs veh, WDR75 / RFU, AHCTF1 / Fold change vs veh, AHCTF1 / RFU, TFRC / Fold change vs veh, TFRC / RFU, ZDHHC17 / Fold change vs veh, ZDHHC17 / RFU, NOM1 / Fold change vs veh, NOM1 / RFU, ARL8B / Fold change vs veh, ARL8B / RFU, ZBTB11 / Fold change vs veh, ZBTB11 / RFU, TAMM41 / Fold change vs veh, TAMM41 / RFU, KIAA1704 /// LOC100996395 / Fold change vs veh, KIAA1704 /// LOC100996395 / RFU, ING1 / Fold change vs veh, ING1 / RFU, TRMT61B / Fold change vs veh, TRMT61B / RFU, FUBP3 / Fold change vs veh, FUBP3 / RFU, TP53 / Fold change vs veh, TP53 / RFU, TNKS2 / Fold change vs veh, TNKS2 / RFU, ZFP14 / Fold change vs veh, ZFP14 / RFU, ACTR2 / Fold change vs veh, ACTR2 / RFU, PPP3R1 / Fold change vs veh, PPP3R1 / RFU, PIK3R1 / Fold change vs veh, PIK3R1 / RFU, HNRNPA1 / Fold change vs veh, HNRNPA1 / RFU, RNF170 / Fold change vs veh, RNF170 / RFU, ZNF28 / Fold change vs veh, ZNF28 / RFU, RNGTT / Fold change vs veh, RNGTT / RFU, OGT / Fold change vs veh, OGT / RFU, BRD1 / Fold change vs veh, BRD1 / RFU, MARS / Fold change vs veh, MARS / RFU, ZNF655 / Fold change vs veh, ZNF655 / RFU, FAHD1 / Fold change vs veh, FAHD1 / RFU, BDP1 / Fold change vs veh, BDP1 / RFU, LRRCC1 / Fold change vs veh, LRRCC1 / RFU, ARID1A / Fold change vs veh, ARID1A / RFU, ZNF146 / Fold change vs veh, ZNF146 / RFU, ZNF330 / Fold change vs veh, ZNF330 / RFU, GPN3 / Fold change vs veh, GPN3 / RFU, C9orf123 / Fold change vs veh, C9orf123 / RFU, N4BP2L2 / Fold change vs veh, N4BP2L2 / RFU, ARFIP1 / Fold change vs veh, ARFIP1 / RFU, FAM179B / Fold change vs veh, FAM179B / RFU, BCL10 / Fold change vs veh, BCL10 / RFU, UHRF1BP1L / Fold change vs veh, UHRF1BP1L / RFU, BET1 / Fold change vs veh, BET1 / RFU, CNOT2 / Fold change vs veh, CNOT2 / RFU, ZNF268 / Fold change vs veh, ZNF268 / Fold change vs veh, ZNF507 / RFU, DGCR2 / Fold change vs veh, DGCR2 / RFU, WDSUB1 / Fold change vs veh, WDSUB1 / Fold change vs veh, HSP90B1 /// MIR3652 / RFU, ADSS / Fold change vs veh, ADSS / RFU, GK / Fold change vs veh, GK / RFU, ZNF148 / Fold change vs veh, ZNF148 / RFU, TAF9 / Fold change vs veh, TAF9 / RFU, SLC1A5 / Fold change vs veh, SLC1A5 / RFU, SLMO2 / Fold change vs veh, SLMO2 / RFU, ABCC4 / Fold change vs veh, ABCC4 / RFU, LOC101060439 /// RAP1B / Fold change vs veh, LOC101060439 /// RAP1B / RFU, RFX7 / Fold change vs veh, RFX7 / RFU, GTPBP10 / Fold change vs veh, GTPBP10 / RFU, CNEP1R1 / Fold change vs veh, CNEP1R1 / RFU, BIVM-ERCC5 /// ERCC5 / Fold change vs veh, BIVM-ERCC5 /// ERCC5 / RFU, ILF3 / Fold change vs veh, ILF3 / RFU 11762660_at / Fold change /veh 11762660_at / RFU VCAN (11757783_s_at) / Fold change /veh VCAN (11757783_s_at) / RFU DDX43 (11728927_at) / Fold change /veh DDX43 (11728927_at) / RFU KRT8 (11758188_x_at) / Fold change /veh KRT8 (11758188_x_at) / RFU NKD1 (11759106_at) / Fold change /veh NKD1 (11759106_at) / RFU SRD5A1 (11742802_a_at) / Fold change /veh SRD5A1 (11742802_a_at) / RFU TPSAB1 /// TPSB2 (11721975_s_at) / Fold change /veh TPSAB1 /// TPSB2 (11721975_s_at) / RFU GSTM3 (11746129_a_at) / Fold change /veh GSTM3 (11746129_a_at) / RFU IL23R (11737362_x_at) / Fold change /veh IL23R (11737362_x_at) / RFU TMEM51 (11727254_a_at) / Fold change /veh TMEM51 (11727254_a_at) / RFU PIWIL2 (11732686_x_at) / Fold change /veh PIWIL2 (11732686_x_at) / RFU ORM1 (11744905_x_at) / Fold change /veh ORM1 (11744905_x_at) / RFU CCDC152 (11743942_at) / Fold change /veh CCDC152 (11743942_at) / RFU ECM1 (11717891_a_at) / Fold change /veh ECM1 (11717891_a_at) / RFU IL23R (11748794_a_at) / Fold change /veh IL23R (11748794_a_at) / RFU TNFAIP8L3 (11732012_x_at) / Fold change /veh TNFAIP8L3 (11732012_x_at) / RFU MBOAT4 (11741988_at) / Fold change /veh MBOAT4 (11741988_at) / RFU 11764193_at / Fold change /veh 11764193_at / RFU TMEM53 (11763286_at) / Fold change /veh TMEM53 (11763286_at) / RFU MAGEB2 (11727129_at) / Fold change /veh MAGEB2 (11727129_at) / RFU TMEM200A (11744735_a_at) / Fold change /veh TMEM200A (11744735_a_at) / RFU CCDC152 (11751479_a_at) / Fold change /veh CCDC152 (11751479_a_at) / RFU FAM211A (11726209_a_at) / Fold change /veh FAM211A (11726209_a_at) / RFU RGS16 (11746705_a_at) / Fold change /veh RGS16 (11746705_a_at) / RFU VCAN (11755009_s_at) / Fold change /veh VCAN (11755009_s_at) / RFU RHOB (11743442_s_at) / Fold change /veh RHOB (11743442_s_at) / RFU RGS16 (11720943_a_at) / Fold change /veh RGS16 (11720943_a_at) / RFU RGS16 (11720944_at) / Fold change /veh RGS16 (11720944_at) / RFU, VPS4B / Fold change vs veh, VPS4B / RFU, CREB1 / Fold change vs veh, CREB1 / RFU, DNAJC13 / Fold change vs veh, DNAJC13 / RFU, GNAQ / Fold change vs veh, GNAQ / RFU, CDK5R1 / Fold change vs veh, CDK5R1 / RFU, ZRANB3 / Fold change vs veh, ZRANB3 / RFU, CUL4A / Fold change vs veh, CUL4A / RFU, CCNY / Fold change vs veh, CCNY / RFU, UFL1 / Fold change vs veh, UFL1 / RFU, COG3 / Fold change vs veh, COG3 / RFU, DIAPH2 / Fold change vs veh, DIAPH2 / RFU, SKA2 / Fold change vs veh, SKA2 / RFU, AFF3 / Fold change vs veh, AFF3 / RFU, LMF1 / Fold change vs veh, LMF1 / RFU, IPO11 / Fold change vs veh, IPO11 / RFU, DFFB / Fold change vs veh, DFFB / RFU, FOXP1 / Fold change vs veh, FOXP1 / RFU, CARD8 / Fold change vs veh, CARD8 / RFU, STRN3 / Fold change vs veh, STRN3 / RFU, ADK / Fold change vs veh, ADK / RFU, RASSF2 / Fold change vs veh, RASSF2 / RFU, WIPF1 / Fold change vs veh, WIPF1 / RFU, LARP1B / Fold change vs veh, LARP1B / RFU, RASA1 / Fold change vs veh, RASA1 / RFU, RB1 / Fold change vs veh, RB1 / RFU, PPFIA1 / Fold change vs veh, PPFIA1 / RFU, MAT2A / Fold change vs veh, MAT2A / RFU, CCT5 / Fold change vs veh, CCT5 / RFU, WDR92 / Fold change vs veh, WDR92 / RFU, CUX1 / Fold change vs veh, CUX1 / RFU, TTC7A / Fold change vs veh, TTC7A / RFU, TMEM135 / Fold change vs veh, TMEM135 / RFU, DEPTOR / Fold change vs veh, DEPTOR / RFU, CPM / Fold change vs veh, CPM / RFU, DNAJB6 / Fold change vs veh, DNAJB6 / RFU, CACNA2D3 / Fold change vs veh, CACNA2D3 / RFU, DTX4 / Fold change vs veh, DTX4 / RFU, TFCP2 / Fold change vs veh, TFCP2 / RFU, GMCL1 /// GMCL1P1 / Fold change vs veh, GMCL1 /// GMCL1P1 / RFU, AEBP2 / Fold change vs veh, AEBP2 / RFU, SNHG1 /// SNORD22 /// SNORD25 /// SNORD26 /// SNORD27 /// SNORD28 /// SNORD29 /// SNORD31 / Fold change vs veh, SNHG1 /// SNORD22 /// SNORD25 /// SNORD26 /// SNORD27 /// SNORD28 /// SNORD29 /// SNORD31 / Fold change (Aza/veh), C12orf56 (ProbeSet 11735607_a_at) / Fold change (ACY-1035/veh), C12orf56 (ProbeSet 11735607_a_at) / Fold change (Aza/veh), FGFR1OP (ProbeSet 11751329_s_at) / Fold change (ACY-1035/veh), FGFR1OP (ProbeSet 11751329_s_at) / Fold change (Aza/veh), VPS36 (ProbeSet 11739960_a_at) / Fold change (ACY-1035/veh), VPS36 (ProbeSet 11739960_a_at) / RFU SYPL1 (11715823_x_at) / Fold change /veh SYPL1 (11715823_x_at) / RFU IGFBP7 (11715501_s_at) / Fold change /veh IGFBP7 (11715501_s_at) / RFU REEP3 (11722064_at) / Fold change /veh REEP3 (11722064_at) / RFU IGLL1 (11728026_x_at) / Fold change /veh IGLL1 (11728026_x_at): dose or concentration left out as unconfirmed",
  "details": "MV-4-11 cells, 48 hours",
  "data": [
    {"compound": "Nc1ncn([C@@H]2O[C@H](CO)[C@@H](O)[C@H]2O)c(=O)n1", "note": "[azacitidine]", "values": [
      {"measurement": "Fold change /veh OR2T12 /// OR2T33 /// OR2T8 (11738714_s_at)", "value": 1.07}
    ]}
  ]
}
